# From publication PMC9130538, “Amino acids in transmembrane helix 1 confer major functional differences between human and mouse orthologs of the polyspecific membrane transporter OCT1” (The Journal of Biological Chemistry, 2022)
# “Also recorded” adds a separate entry of the source. Where two headings read alike, the source gives them in different places.
# Tests used:
# human OCT1 [1] = molecular target: T1, human OCT1 (Homo sapiens, UniProt O15245); experiment: Cellular uptake by HEK293 cells overexpressing human OCT1 (wildtype); details: for transport by human OCT1 (saturability): concentration-dependent uptake, stably transfected HEK293, 2 min
# T1 sequence (O15245 1-554): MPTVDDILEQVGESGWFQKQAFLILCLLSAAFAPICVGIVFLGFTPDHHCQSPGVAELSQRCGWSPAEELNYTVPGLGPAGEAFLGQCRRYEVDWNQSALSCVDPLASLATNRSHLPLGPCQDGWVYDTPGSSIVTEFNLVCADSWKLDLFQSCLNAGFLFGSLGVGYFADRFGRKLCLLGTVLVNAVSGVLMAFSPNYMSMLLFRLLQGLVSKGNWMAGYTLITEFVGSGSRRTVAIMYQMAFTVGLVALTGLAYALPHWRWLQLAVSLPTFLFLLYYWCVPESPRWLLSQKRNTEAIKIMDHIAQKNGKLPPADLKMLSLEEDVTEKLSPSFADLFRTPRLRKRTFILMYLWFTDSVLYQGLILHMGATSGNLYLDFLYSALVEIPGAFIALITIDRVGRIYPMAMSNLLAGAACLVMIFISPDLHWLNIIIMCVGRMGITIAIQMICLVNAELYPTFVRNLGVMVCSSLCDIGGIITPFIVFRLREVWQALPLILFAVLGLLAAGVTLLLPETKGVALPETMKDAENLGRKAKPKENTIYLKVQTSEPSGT
# Protocol: (§1) Generation and characterization of these cell lines has been described in detail before ([34], [48], [49]). Cells were cultured in Dulbecco’s Modified Eagle’s Medium supplemented with 10% fetal bovine serum, 100 U/ml penicillin, and 100 μg/ml streptomycin at 37 °C and 5% CO2 and were passaged twice a week.
# (§2) At 48 h prior to the experiment, 6 × 10^5 cells were seeded per well in 12-well plates. When using transiently transfected cells, 5 × 10^5 T-REx-293 cells (Life Technologies) were seeded per well in 12-well plates 72 h prior to the experiment, and they were transfected 24 h later as described previously. Twelve-well plates were precoated with poly-D-lysine.
# (§3) Cellular uptake experiments were performed at 37 °C and pH 7.4 using HBSS supplemented with 10 mM Hepes (in the following referred to as HBSS+). Cells were washed with 1 ml prewarmed (37 °C) HBSS+, and the uptake was initiated by adding 400 μl of prewarmed HBSS+ containing the substrate. Uptake was allowed for exactly 2 min and afterward stopped by adding 2 ml ice-cold HBSS+. Cells were washed twice with 2 ml ice-cold HBSS+ and lysed with 80% acetonitrile supplemented with internal standard, 0.1 N NaOH/0.1% SDS, or radioimmunoprecipitation buffer for LC–MS/MS, liquid scintillation counting, or fluorescence spectroscopy detection, respectively. Intracellular substrate concentrations were measured as described in the following and were then normalized to the amount of total protein in the samples as measured using the bicinchoninic acid assay ([51]).
# (§4) For LC–MS/MS quantification of intracellular substrate concentrations, the cell lysate was centrifuged at 16,000g for 15 min, and 350 μl of supernatant was evaporated to dryness under nitrogen flow at 40 °C. The sample was reconstituted with 200 μl 0.1% formic acid, and between 2 and 30 μl were injected into the LC–MS/MS system (Table S1).
# (§5) An API4000 QTRAP tandem mass spectrometer with ESI interface (AB SCIEX) was used, coupled to a Shimadzu Nexera X2 UHPLC system with LC 30AD pumps and SiL 30AC autosampler (Shimadzu).
# (§6) Intracellular concentrations of radioactively labeled substrates MPP^+ and TEA^+ were quantified using liquid scintillation counting. To this end, 400 μl cell lysate was transferred into a 20 ml scintillation vial, 9 ml Aquasafe 500 Plus liquid scintillator (both Zinsser Analytics) was added, and the sample was measured in the Scintillation Counter LS6500 (Beckman Coulter).
# (§7) For both analyses, SPSS Statistics, version 28 (SPSS, Inc, IBM) was used.
# mouse Oct1 [2] = molecular target: T2, mouse Oct1 (Mus musculus, UniProt O08966); experiment: Cellular uptake by HEK293 cells overexpressing mouse Oct1 (wildtype)
# T2 sequence (O08966 1-556): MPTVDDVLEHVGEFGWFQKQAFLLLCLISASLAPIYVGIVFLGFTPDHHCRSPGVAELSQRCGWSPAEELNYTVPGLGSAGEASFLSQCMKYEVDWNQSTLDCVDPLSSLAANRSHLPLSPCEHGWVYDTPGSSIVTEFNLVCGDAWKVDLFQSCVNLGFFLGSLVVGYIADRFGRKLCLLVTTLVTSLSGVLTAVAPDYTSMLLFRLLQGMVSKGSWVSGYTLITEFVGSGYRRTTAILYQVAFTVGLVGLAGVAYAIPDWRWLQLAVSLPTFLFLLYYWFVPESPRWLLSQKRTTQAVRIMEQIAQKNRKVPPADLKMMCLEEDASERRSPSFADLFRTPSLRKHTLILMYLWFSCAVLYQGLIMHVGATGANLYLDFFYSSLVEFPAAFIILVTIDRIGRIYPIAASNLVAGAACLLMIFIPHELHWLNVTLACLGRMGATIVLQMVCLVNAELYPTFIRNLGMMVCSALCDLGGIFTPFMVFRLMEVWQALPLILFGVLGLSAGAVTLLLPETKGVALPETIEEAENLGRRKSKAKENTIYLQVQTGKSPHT
# Protocol: as §1, §2, §3, §4, §5, §6, §7
# human OCT1 [3] = molecular target: T1, human OCT1; parameters: expressed in transfected cells; method as in PMID 33037045, PMID 34040533; details: HEK293 stably transfected, 2 min, data previously published, ref [34], [35], cited from earlier work; for Km: read-out: KM ± SD, hOCT1
# mouse Oct1 [4] = molecular target: T2, mouse Oct1; parameters: expressed in transfected cells; method as in PMID 33037045, PMID 34040533; details: HEK293 stably transfected, 2 min, data previously published, ref [34], [35], cited from earlier work; for Km: read-out: KM ± SD, mOct1
# [5] = ASP^+ by fluorescence spectroscopy, HEK293 stably transfected, 2 min
# [6] = read-out: KM ± SD, hOCT1, HEK293 stably transfected, 2 min uptake, 37 °C, pH 7.4
# [7] = HEK293 stably transfected, 2 min uptake, 37 °C, pH 7.4, OCT1-mediated uptake
# [8] = human versus mouse OCT1, stably transfected HEK293
compound,measurement,setting,value
"CN(C)c1ccc(C=Cc2cc[n+](C)cc2)cc1 [ASP^+, 4-(4-(dimethylamino)styryl)-N-methylpyridinium]","vmax ± SD, hOCT1",human OCT1 [1]; [5],"361,671 ± 2974 RFU × min^−1 × mg protein^−1"
same,Km,human OCT1 [1]; [6],63 ± 15.3 µM
same,"vmax ± SD, mOct1",mouse Oct1 [2]; [5],"53,802 ± 7155 RFU × min^−1 × mg protein^−1"
same,Km,"mouse Oct1 [2]; read-out: KM ± SD, mOct1, HEK293 stably transfected, 2 min uptake, 37 °C, pH 7.4",12.8 ± 2.97 µM
"CC[N+](CC)(CC)CC [TEA^+, tetraethylammonium]","CLint ± SD, hOCT1",human OCT1 [1],6.31 ± 2.45 μl × min^−1 × mg protein^−1
same,Km,human OCT1 [1]; pH 7.4,749 ± 438 µM
same,"vmax ± SD, hOCT1",human OCT1 [1]; pH 7.4,4207 ± 1511 pmol × min^−1 × mg protein^−1
same,"CLint ± SD, mOct1",mouse Oct1 [2],27.6 ± 9.72 μl × min^−1 × mg protein^−1
same,Km,mouse Oct1 [2]; pH 7.4,305 ± 141 µM
same,"vmax ± SD, mOct1",mouse Oct1 [2]; pH 7.4,7764 ± 2883 pmol × min^−1 × mg protein^−1
"C[n+]1ccc(-c2ccccc2)cc1 [MPP^+, 1-methyl-4-phenylpyridinium]","vmax ± SD, hOCT1",human OCT1 [1]; [7],3112 ± 419 pmol × min^−1 × mg protein^−1
same,Km,human OCT1 [1]; [6],71.1 ± 17.3 µM
same,"CLint ± SD, mOct1",mouse Oct1 [2],80.8 ± 12.1 μl × min^−1 × mg protein^−1
same,Km,mouse Oct1 [2]; pH 7.4,24.4 ± 7.95 µM
same,"vmax ± SD, mOct1",mouse Oct1 [2]; pH 7.4,1910 ± 450 pmol × min^−1 × mg protein^−1
Cc1ncc(C[n+]2csc(CCO)c2C)c(N)n1 [Thiamine],"vmax ± SD, hOCT1",human OCT1 [3],8261 ± 3720 pmol × min^−1 × mg protein^−1
same,Km,human OCT1 [3],1060 ± 341 µM
same,"vmax ± SD, mOct1",mouse Oct1 [4],3712 ± 1031 pmol × min^−1 × mg protein^−1
same,Km,mouse Oct1 [4],143 ± 96.3 µM
"CC(C)C(=O)O[C@H](CC(=O)[O-])C[N+](C)(C)C [IBC, isobutyryl-L-carnitine]",transport by human OCT1 (saturability),human OCT1 [1],not transported at all
same,transport by human OCT1 (saturability),human OCT1 [1]; listed as isobutyryl-L-carnitine (IBC),lacked any saturable transport
same,"vmax ± SD, mOct1",mouse Oct1 [4],8366 ± 1705 pmol × min^−1 × mg protein^−1
same,Km,mouse Oct1 [4],1380 ± 356 µM
CC(NCCc1ccc(O)cc1)C(O)c1ccc(O)cc1 (centres unmarked) [Ritodrine],fold higher affinity (KM) of human than of mouse OCT1,human OCT1 [1]; [8],~10 fold
[H]/N=C(/N)N/C(=N/[H])NCCc1ccccc1 [Phenformin],"CLint ± SD, hOCT1","human OCT1 [1]; human, pH 7.4",106 ± 22.8 μl × min^−1 × mg protein^−1
same,"CLint ± SD, mOct1","mouse Oct1 [2]; mouse, pH 7.4",143 ± 26.2 μl × min^−1 × mg protein^−1
C[N@+]1(CC2CC2)CC[C@]23c4c5ccc(O)c4O[C@H]2C(=O)CC[C@@]3(O)[C@H]1C5 [Methylnaltrexone],"vmax ± SD, mOct1",mouse Oct1 [2]; [7],414 ± 130 pmol × min^−1 × mg protein^−1
CN(C)C(=N)N=C(N)N [Metformin],"vmax ± SD, hOCT1",human OCT1 [3],"14,703 ± 4346 pmol × min^−1 × mg protein^−1"
same,Km,human OCT1 [3],2200 ± 1150 µM
same,"vmax ± SD, mOct1",mouse Oct1 [4],"17,496 ± 7097 pmol × min^−1 × mg protein^−1"
same,Km,mouse Oct1 [4],491 ± 155 µM
C[N+](C)(C)CCO [Choline],transport by human OCT1 (saturability),human OCT1 [1],lacked any saturable transport; also recorded: not transported at all
C[N+]1(C)[C@@H]2C[C@@H](OC(=O)C(O)(c3cccs3)c3cccs3)C[C@H]1[C@@H]1O[C@@H]12 [Tiotropium],Km,"human OCT1 [1]; human, pH 7.4",7.82 ± 1.77 µM
same,"vmax ± SD, hOCT1",human OCT1 [1]; pH 7.4,836 ± 322 pmol × min^−1 × mg protein^−1
same,Km,"mouse Oct1 [2]; mouse, pH 7.4",1.47 ± 0.12 µM
same,"vmax ± SD, mOct1",mouse Oct1 [2]; pH 7.4,285 ± 87.1 pmol × min^−1 × mg protein^−1
CC(CCc1ccc(O)cc1)NCC(O)c1ccc(O)cc1 (centres unmarked) [Ractopamine],fold higher affinity (KM) of human than of mouse OCT1,human OCT1 [1]; [8],comparable between human and mouse OCT1
NC[C@H](O)c1ccc(O)c(O)c1 [Noradrenaline],transport by human OCT1 (saturability),human OCT1 [1],lacked any saturable transport
COc1ccc(CC(C)NCC(O)c2ccc(O)c(NC=O)c2)cc1 (centres unmarked) [Formoterol],"vmax ± SD, hOCT1",human OCT1 [1]; [7],434 ± 111 pmol × min^−1 × mg protein^−1
same,"vmax ± SD, mOct1",mouse Oct1 [2]; [7],1458 ± 317 pmol × min^−1 × mg protein^−1
CC(C)NCC(O)c1cc(O)cc(O)c1 (centres unmarked) [Orciprenaline],fold lower affinity (KM) of human OCT1 than mouse Oct1 (higher affinity of mouse Oct1),human OCT1 [1]; [8],more than sixfold higher affinity of mouse Oct1
